{"source": "patent US7994140B2", "about": "“Classes of compounds that interact with GPCRs” (Alchemia Limited, priority 2002, dated 2011)", "data": [{"biological_target": "T1, MC4 (Homo sapiens, UniProt P32245)", "T1 construct": "purchased Perkin Elmer BioSignal; host or cells: HEK 293", "T1 sequence (P32245 whole entry)": "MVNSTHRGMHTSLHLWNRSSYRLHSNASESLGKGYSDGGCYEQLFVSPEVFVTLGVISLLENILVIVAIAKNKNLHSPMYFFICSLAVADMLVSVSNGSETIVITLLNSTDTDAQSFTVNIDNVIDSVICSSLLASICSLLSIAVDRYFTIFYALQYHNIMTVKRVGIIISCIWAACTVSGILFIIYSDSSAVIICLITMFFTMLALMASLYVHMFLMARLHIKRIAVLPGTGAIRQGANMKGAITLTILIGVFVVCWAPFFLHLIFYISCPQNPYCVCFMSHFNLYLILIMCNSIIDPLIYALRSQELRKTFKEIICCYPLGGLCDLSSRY", "test": "GPCR radioligand binding (RLB) assay, melanocortin MC4, [125I]NDP-αMSH", "conditions": "10 micromolar compound; recombinant human receptor membranes (HEK 293)", "experimental": "(§1) Recombinant human receptors expressed in HEK 293 cells were used for all experiments. Receptor membrane preparations were purchased from Perkin Elmer BioSignal. The labelled ligand used in somatostatin GPCR RLB assays was [^125I]SST-14 and in melanocortin assays was [^125I]NDP-αMSH. All assays were done in a 96-well plate format using either glass fiber filter mats or filter plates. All reagents purchased were of the highest quality.\n(§2) Specific assay buffer, incubation and washing conditions were optimized for each receptor however they all followed the same general format. The procedures for both filter mat and filter plate formats are based on the receptor manufacturers recommendations or those described extensively in the literature. The procedures are briefly outlined below.\n(§3) In assays where filter mats are used we incubate receptor membranes, assay buffer and [^125I] labelled ligand in 96 well microplates. Add compounds to incubation mixture and continue incubation for optimized period. Presoak Filter mat GF/B in 0.5% PEI for ˜2 hr at 4° C. On completion of assay mixture incubation add additional 100 μL/well of assay buffer immediately prior to filtration. Filter the assay mixture onto the GF/B filter mat using a cell harvester. Dry the filter mats prior to sealing them into a scintillation counting bag with scintillant. Radioactivity in each well is detected by liquid scintillation counting.\n(§4) In assays where filter plates are used Multiscreen glass fiber filter plates (Millipore, Cat No MAFCNOB10) are precoated with 0.5% PEI for ˜2 hr at 4° C. All wells are then washed with 200 µl/well assay buffer and filtered using the Multiscreen Separation System. Subsequently receptor membranes, assay buffer and labelled ligands are added to the wells and equilibrated. Compounds for testing are then added to the mixture and incubation is continued for an optimized time. Plates are then put into the Multiscreen Separation System and the assay mixture is filtered through the plate under vacuum. Each well is then washed several times with assay buffer. Plates are then dried prior to putting sealing tape onto the bottom of the plate. Scintillant is added to each well and radioactivity measured by liquid scintillation counting.\n(§5) Raw data was analysed according to standard methods using either GraphPad Prism software or IDDBS ActivityBase software.", "values": [{"smiles": "COC1C(O)C(COCc2ccc(Cl)cc2)OC(OCc2ccccc2)C1NC(=O)CCCN", "note": "(stereo not drawn) [Compound 81]", "MC4 inhibition at 10 micromolar": "+ (Indicates inhibition greater than . . . 50%)"}, {"smiles": "COC1C(O)C(COCc2ccc(Cl)cc2)OC(OCc2ccccc2)C1NC(=O)CCCNC(=N)N", "note": "(stereo not drawn) [Compound 82]", "MC4 inhibition at 10 micromolar": "+ (Indicates inhibition greater than . . . 50%)"}, {"smiles": "COC1C(O)C(COCc2ccc(-c3ccccc3)cc2)OC(OCc2ccc(Cl)cc2)C1NC(=O)CNC(=N)N", "note": "(stereo not drawn) [Compound 83]", "MC4 inhibition at 10 micromolar": "+ (Indicates inhibition greater than . . . 50%)"}, {"smiles": "COC1C(O)C(COCc2ccc(-c3ccccc3)cc2)OC(OCc2ccc(Cl)cc2)C1NC(=O)CCCN", "note": "(stereo not drawn) [Compound 85]", "MC4 inhibition at 10 micromolar": "+ (Indicates inhibition greater than . . . 50%)"}, {"smiles": "CO[C@H]1[C@H](O)[C@@H](COCc2ccc(Cl)cc2)OC(OCc2ccc(Cl)cc2)[C@@H]1NC(=O)CNC(=N)N", "note": "(stereo partly drawn) [Compound 92]", "MC4 inhibition at 10 micromolar": "+ (Indicates inhibition greater than . . . 50%)"}, {"smiles": "CO[C@H]1[C@H](O)[C@@H](COCc2ccc(Cl)cc2)OC(OCc2ccc(Cl)cc2)[C@@H]1NC(=O)CCNC(=N)N", "note": "(stereo partly drawn) [Compound 93]", "MC4 inhibition at 10 micromolar": "+ (Indicates inhibition greater than . . . 50%)"}, {"smiles": "CO[C@H]1[C@H](O)[C@@H](COCc2ccc(Cl)cc2)OC(OCc2ccc(Cl)cc2)[C@@H]1NC(=O)CCCNC(=N)N", "note": "(stereo partly drawn) [Compound 95]", "MC4 inhibition at 10 micromolar": "+ (Indicates inhibition greater than . . . 50%)"}, {"smiles": "CO[C@H]1[C@H](O)[C@@H](COCc2ccc(-c3ccccc3)cc2)OC(OCCc2ccccc2)[C@@H]1NC(=O)CNC(=N)N", "note": "(stereo partly drawn) [Compound 96]", "MC4 inhibition at 10 micromolar": "+ (Indicates inhibition greater than . . . 50%)"}, {"smiles": "CO[C@H]1[C@H](O)[C@@H](COCc2ccc(-c3ccccc3)cc2)OC(OCCc2ccccc2)[C@@H]1NC(=O)CCNC(=N)N", "note": "(stereo partly drawn) [Compound 97]", "MC4 inhibition at 10 micromolar": "+ (Indicates inhibition greater than . . . 50%)"}, {"smiles": "CO[C@H]1[C@H](O)[C@@H](COCc2ccc(-c3ccccc3)cc2)OC(OCCc2ccccc2)[C@@H]1NC(=O)CCCNC(=N)N", "note": "(stereo partly drawn) [Compound 99]", "MC4 inhibition at 10 micromolar": "+ (Indicates inhibition greater than . . . 50%)"}, {"smiles": "CO[C@H]1[C@H](O)[C@@H](COCc2ccc3ccccc3c2)OC(OCCc2ccccc2)[C@@H]1NC(=O)CNC(=N)N", "note": "(stereo partly drawn) [Compound 100]", "MC4 inhibition at 10 micromolar": "+ (Indicates inhibition greater than . . . 50%)"}, {"smiles": "CO[C@H]1[C@H](O)[C@@H](COCc2ccc3ccccc3c2)OC(OCCc2ccccc2)[C@@H]1NC(=O)CCNC(=N)N", "note": "(stereo partly drawn) [Compound 101]", "MC4 inhibition at 10 micromolar": "+ (Indicates inhibition greater than . . . 50%)"}, {"smiles": "CO[C@H]1[C@H](O)[C@@H](COCc2ccc(Cl)cc2)OC(OCCc2ccccc2)[C@@H]1NC(=O)CNC(=N)N", "note": "(stereo partly drawn) [Compound 104]", "MC4 inhibition at 10 micromolar": "+ (Indicates inhibition greater than . . . 50%)"}, {"smiles": "CO[C@H]1[C@H](O)[C@@H](COCc2ccc(Cl)cc2)OC(OCCc2ccccc2)[C@@H]1NC(=O)CCNC(=N)N", "note": "(stereo partly drawn) [Compound 105]", "MC4 inhibition at 10 micromolar": "+ (Indicates inhibition greater than . . . 50%)"}, {"smiles": "CO[C@H]1[C@H](O)[C@@H](COCc2ccc(Cl)cc2)OC(OCCc2ccccc2)[C@@H]1NC(=O)CCCNC(=N)N", "note": "(stereo partly drawn) [Compound 107]", "MC4 inhibition at 10 micromolar": "+ (Indicates inhibition greater than . . . 50%)"}, {"smiles": "CO[C@H]1[C@H](O)[C@@H](COCc2cccc(O)c2)OC(OCc2ccc(-c3ccccc3)cc2)[C@@H]1NC(=O)CNC(=N)N", "note": "(stereo partly drawn) [Compound 108]", "MC4 inhibition at 10 micromolar": "+ (Indicates inhibition greater than . . . 50%)"}, {"smiles": "CO[C@H]1[C@H](O)[C@@H](COCc2cccc(O)c2)OC(OCc2ccc(Cl)cc2)[C@@H]1NC(=O)CCNC(=N)N", "note": "(stereo partly drawn) [Compound 110]", "MC4 inhibition at 10 micromolar": "+ (Indicates inhibition greater than . . . 50%)"}, {"smiles": "CO[C@H]1[C@H](O)[C@@H](COCc2ccc(-c3ccccc3)cc2)OC(OCc2cccc(O)c2)[C@@H]1NC(=O)CNC(=N)N", "note": "(stereo partly drawn) [Compound 112]", "MC4 inhibition at 10 micromolar": "+ (Indicates inhibition greater than . . . 50%)"}, {"smiles": "CO[C@H]1[C@H](O)[C@@H](COCc2ccc(-c3ccccc3)cc2)OC(OCc2cccc(O)c2)[C@@H]1NC(=O)CCNC(=N)N", "note": "(stereo partly drawn) [Compound 113]", "MC4 inhibition at 10 micromolar": "+ (Indicates inhibition greater than . . . 50%)"}, {"smiles": "CO[C@H]1[C@H](O)[C@@H](COCc2ccc(-c3ccccc3)cc2)OC(OCc2cccc(O)c2)[C@@H]1NC(=O)CCCN", "note": "(stereo partly drawn) [Compound 114]", "MC4 inhibition at 10 micromolar": "+ (Indicates inhibition greater than . . . 50%)"}, {"smiles": "CO[C@H]1[C@H](O)[C@@H](COCc2ccc3ccccc3c2)OC(OCc2cccc(O)c2)[C@@H]1NC(=O)CCCNC(=N)N", "note": "(stereo partly drawn) [Compound 115]", "MC4 inhibition at 10 micromolar": "+ (Indicates inhibition greater than . . . 50%)"}, {"smiles": "CO[C@H]1[C@H](O)[C@@H](COCc2ccc3ccccc3c2)OC(OCc2cccc(O)c2)[C@@H]1NC(=O)CCNC(=N)N", "note": "(stereo partly drawn) [Compound 116]", "MC4 inhibition at 10 micromolar": "+ (Indicates inhibition greater than . . . 50%)"}, {"smiles": "CO[C@H]1[C@H](O)[C@@H](COCc2ccc3ccccc3c2)OC(OCc2cccc(O)c2)[C@@H]1NC(=O)CCCNC(=N)N", "note": "(stereo partly drawn) [Compound 117]", "MC4 inhibition at 10 micromolar": "+ (Indicates inhibition greater than . . . 50%)"}, {"smiles": "CSC1OC(COCc2ccc3ccccc3c2)C(O)C(OCc2ccc(-c3ccccc3)cc2)C1NC(=O)CN", "note": "(stereo not drawn) [Compound 185]", "MC4 inhibition at 10 micromolar": "+ (Indicates inhibition greater than . . . 50%)"}, {"smiles": "CSC1OC(COC(=O)Cc2ccccc2)C(O)C(OCc2cccc(N)c2)C1NCc1ccccc1", "note": "(stereo not drawn) [Compound 308]", "MC4 inhibition at 10 micromolar": "+ (Indicates inhibition greater than . . . 50%)"}, {"smiles": "CSC1OC(COC(=O)c2c[nH]c3ccccc23)C(O)C(OCc2cccc(N)c2)C1NCc1ccccc1", "note": "(stereo not drawn) [Compound 309]", "MC4 inhibition at 10 micromolar": "+ (Indicates inhibition greater than . . . 50%)"}, {"smiles": "CSC1OC(COC(=O)c2c[nH]c3ccccc23)C(O)C(OCc2cccc(N)c2)C1NCc1ccc(Cl)cc1", "note": "(stereo not drawn) [Compound 314]", "MC4 inhibition at 10 micromolar": "+ (Indicates inhibition greater than . . . 50%)"}, {"smiles": "CSC1O[C@H](COCc2ccccc2)[C@@H](O)[C@H](OCc2cccc(N)c2)[C@H]1NC(=O)Cc1ccccc1", "note": "(stereo partly drawn) [Compound 317]", "MC4 inhibition at 10 micromolar": "+ (Indicates inhibition greater than . . . 50%)"}, {"smiles": "CSC1O[C@H](COCc2ccccc2)[C@@H](O)[C@H](OCc2cccc(N)c2)[C@H]1NC(=O)c1c[nH]c2ccccc12", "note": "(stereo partly drawn) [Compound 318]", "MC4 inhibition at 10 micromolar": "+ (Indicates inhibition greater than . . . 50%)"}, {"smiles": "CSC1O[C@H](COCc2ccc(Cl)cc2)[C@@H](O)[C@H](OCc2cccc(N)c2)[C@H]1NC(=O)c1c[nH]c2ccccc12", "note": "(stereo partly drawn) [Compound 323]", "MC4 inhibition at 10 micromolar": "+ (Indicates inhibition greater than . . . 50%)"}, {"smiles": "CSC1O[C@H](COCc2ccc(Cl)cc2)[C@@H](O)[C@H](OCc2cccc(N)c2)[C@H]1NC(=O)CCC1CNc2ccccc21", "note": "(stereo partly drawn) [Compound 325]", "MC4 inhibition at 10 micromolar": "+ (Indicates inhibition greater than . . . 50%)"}, {"smiles": "CSC1OC(COCc2cccc(N)c2)C(O)C(OCc2ccccc2)C1NC(=O)c1c[nH]c2ccccc12", "note": "(stereo not drawn) [Compound 328]", "MC4 inhibition at 10 micromolar": "+ (Indicates inhibition greater than . . . 50%)"}]}, {"biological_target": "T1, MC4", "test": "GPCR radioligand binding (RLB) assay, melanocortin MC4, [125I]NDP-αMSH", "conditions": "10 micromolar; Example Library 4", "experimental": "as §1, §2, §3, §4, §5", "values": [{"smiles": "COCC1OC(OCCc2ccccc2)C(NC(=O)CNC(=N)N)C(OCc2ccccc2)C1O", "note": "(stereo not drawn) [Compound 261]", "MC4 inhibition at 10 micromolar": "+ (Indicates inhibition greater than . . . 50%)"}]}]}
